Type in all cases: cell-based
In experiment [1] the test system is Human Dermal Fibroblasts (HDF). The experiment in a line: Cell proliferation assay (BrDu), HDF. Particulars: HDF cells; 5, 0.5 or 0.05 μg/ml, 24 h; compared with untreated control; FIG. 1. On the procedure:
(§1) BrDu is incorporated into newly synthesised DNA strands of actively proliferating cells. Following partial denaturation of double stranded DNA, BrDu is detected immunochemically allowing the assessment of the population of cells which are synthesizing DNA.
Human Dermal Fibroblasts (HDF—Sigma 10605a) were seeded in a 96 well plate at 10,000 cells per well in DMEM containing 10% fetal calf serum (FCS), 1% Pen/strep, 1% L-glutamine and allowed to adhere for 24 h.
(§2) Following the initial 24 h incubation the cells were incubated with 5 μg/ml, 0.5 μg/ml or 0.05 μg/ml synthetic peptide for 24 h respectively.
(§3) After 18 h incubation with synthetic peptides 20 μl BrDu reagent was added to each well. At 24 h incubation the cells were fixed and the amount of […] was measured using the BrdU Cell Proliferation Assay, all steps were carried out according to the manufacturer's instructions.

Experiment [2] relates to HACAT cells. The experiment in a line: Glucose uptake (2-DG), HACAT. Particulars: compared with untreated control, FIG. 5. Here is the method: Glucose uptake in skeletal muscle cells was measured using 2-deoxyglucose (2-DG). 2-DG is taken up by glucose transporters and metabolized to 2-DG-6-phosphate (2-DG6P). The amount of accumulated non-metabolized 2-DG6P is proportional to glucose uptake by cells.
Following stimulation, the cells were incubated with 10 μl/well of 2-DG solution for 40 min and glucose uptake was measured using the ‘PrismColor Glucose Uptake Assay Kit’ (Molecutools), all steps were carried out according to the manufacturer's instructions. The experiment was repeated using HACAT cells.

The next experiment relates to HSkMC cells. As to the kind of experiment: QPCR on specific genes of interest. Particulars: 0.5 ug/ml, normalised by B2M, over control. Here is the method:
A volume of 2 ml of HSkMC cells were seeded in a 6 cm plate, pre-coated with collagen, at a concentration of 2×10^5 cells. Cells were allowed to adhere overnight at 37° C. 5% CO2 and the following day the growth media was replaced with 2 ml of cell differentiation media and returned to the incubator at 37° C. 5% CO2. The cell differentiation media was changed every 2 days for a period of 6 days, until the HSkMC cells were fully differentiated into myotubes. On day 7, the cell differentiation media was replaced with 2 ml of basal media and starved overnight at 37° C. 5% CO2.
On the day of the experiment, the starvation media was removed and replaced with 2 ml of basal media containing 0.5 ug/ml of SEQUENCE ID NO: 1. Untreated cells were run in parallel. The cells were incubated in this treatment for a period of 20 min at 37° C. 5% CO2, at which point the treatment media was removed and the cells were scraped in 1 ml of PBS. The cell suspension was pelleted in a microcentrifuge at 1500 rpm for 5 min, and the supernatant was removed. The cells were immediately flash frozen in liquid nitrogen and transferred to a −80° C. freezer for storage until dispatched to CROs.
Quantitative PCR was performed using a TaqMan probe based method, where target mRNA expression was quantified relative to the expression of the B2M housekeeping gene. A master mix containing primer/probe and Taqman® Gene Expression Master Mix (ABI Biosystems, CA, USA) was added to 1 μl of cDNA template. A final volume of 10 μl was pipetted into a well of a 96-well Lightcycler plate (Sarstedt, Nümbrecht, Germany) in duplicate and real time PCR was performed on a Roche Lightcycler 96 (Roche Diagnostics, Basal, Switzerland) real time thermal cycler. The threshold cycle (Ct) for each well was calculated using the instrument software. Data analysis was based on the ΔΔCt method with raw data normalised by the B2M housekeeping gene included on the plate. Results are expressed as fold change over control.
QPCR results (methods of treatment remains the same; concentration of SEQ ID 1 remains 0.5 ug/ml)

The next experiment concerns protein synthesis. As to the kind of experiment: Puromycin ELISA (protein synthesis). The note with it: FIG. 10. An excerpt:
Puromycin is an aminonucleoside antibiotic produced by the bacterium Streptomyces alboniger. It is a structural analogue of aminoacyl-transfer RNA and, as such, can be incorporated into elongating peptide chains via the formation of a peptide bond. However, whereas aminoacyl-tRNAs contain a hydrolyzable ester bond, puromycin hasn't it in the equivalent position. Thus, the binding of puromycin to a growing peptide chain prevents a new peptide bond from being formed with the next aminoacyl-tRNA. As a consequence, puromycin binding results in the termination of peptide elongation, and leads to the release of the truncated puromycin bound peptide from the ribosome. […] This later property makes puromycin a potential tool for the measurement of changes in protein synthesis rates.
1. Dispense […] Coating Buffer per well in the required number of wells in a 96 well ELISA plate. Dilute and mix the Protein extract (in the same buffer the sample is in) to […]. Immediately dispense 1 μl/well into plate.
2. Incubate the plate at 4° C. for 16-24 h.
3. Vigorously shake out contents. Wash 1× with 200 ul PBS.
4. Add 200 μl Blocking Solution (5% BSA in PBS). Incubate over the day 4-6 h at RT.
5. Dilute Puromycin antibody in Blocking solution and incubate overnight at 4° C.
8. Wash 2× with 200 ul PBS
9. […]
12. Add Stop solution and read the plate at 450 nm.

Experiment [3] deals with Human Dermal Fibroblasts (HDF). The experiment in a line: Collagen production assay (hydroxyproline ELISA). The note with it: 5, 1 or 0.1 μg/ml, 96 h, compared with untreated control, FIG. 3. Here is the method: Study Description Hydroxyproline in tissue preparations is a direct measure of the amount of collagen present. […] Human Hydroxyproline ELISA kit assay is designed to measure hydroxyproline in tissue or peptide compositions.
Human Dermal Fibroblasts (HDF Sigma 10605a) were seeded in 24 well plates at 50,000 cells per well in DMEM containing 10% fetal calf serum (FCS), 1% Pen/strep, 1% L-glutamine and allowed to adhere for 24 h.
Following the initial 24 h incubation the cells were incubated with 5 μg/ml, 1 μg/ml or 0.1 μg/ml synthetic peptide for 96 h respectively.
After treatment, the cell supernatant was removed and centrifuged. 50 μl of each supernatant was assayed using the […] Human Hydroxyproline ELISA kit. All steps were carried out according to the manufacturer's instructions.

Experiment [4] concerns HACAT cells. The experiment in a line: Cell proliferation assay (BrDu), HACAT. Particulars: compared with untreated control, FIG. 2. Here is the method: as §1, §2, §3
This experiment was then repeated using HACAT cells.

Regarding WKDEAGKPLVK [SEQ ID NO. 1], the cell proliferation entry (in experiment [1]; with HACAT cells [4]) was “increase” in each case. The glucose uptake result with HACAT cells [2] was “increase”. Also, the Fold change was 0.48 fold in the experiment on HSkMC cells (ACVR2B); 1.07 fold in the experiment with HSkMC cells (Adiponectin); 0.85 fold in the experiment with HSkMC cells (COX4I1); 1.00 fold in the experiment with HSkMC cells (FBXO32); 1.95 fold in the experiment with HSkMC cells (GLUT4); 0.67 fold in the experiment with HSkMC cells (HSPA2). Further, the Fold change with HSkMC cells (LEPR) is listed as 1.20 fold; with HSkMC cells (Leptin) it was 0.51 fold; with HSkMC cells (MSTN) it was 0.17 fold; in the experiment on HSkMC cells (MYOG), 0.70 fold; in the experiment with HSkMC cells (NRF1) it was 0.54 fold; in the experiment with HSkMC cells (PPARGC1A), 0.69 fold. Moreover, the Fold change with HSkMC cells (PRKAG3) came out at 0.35 fold; in the experiment with HSkMC cells (SIRT), 0.41 fold; with HSkMC cells (TRIM63), 0.70 fold; in the experiment with HSkMC cells (UQCRB), 2.56 fold. In addition, the protein synthesis result with protein synthesis is recorded as “increase”. In addition, the collagen production result in experiment [3] is on record as “increase”.
